Test results as given in patent US12059420B2 (BRISTOL-MYERS SQUIBB COMPANY, priority 2018, dated 2024).
Where a name gives a salt, the structure may show the parent alone.

molecular target: T1, human IDO1 (Homo sapiens, UniProt P14902); assay: IDO inhibition assay in HEK293 cells stably expressing human IDO1 (kynurenine production, Ehrlich reagent, absorbance 490 nm); assay type: cell-based; conditions: 20 hours incubation with compound, 500 nM reference standard = 100% inhibition, read-out: IDO1 HEK Human IC50
T1 construct: expressed in transfected cells
T1 sequence (P14902 whole entry): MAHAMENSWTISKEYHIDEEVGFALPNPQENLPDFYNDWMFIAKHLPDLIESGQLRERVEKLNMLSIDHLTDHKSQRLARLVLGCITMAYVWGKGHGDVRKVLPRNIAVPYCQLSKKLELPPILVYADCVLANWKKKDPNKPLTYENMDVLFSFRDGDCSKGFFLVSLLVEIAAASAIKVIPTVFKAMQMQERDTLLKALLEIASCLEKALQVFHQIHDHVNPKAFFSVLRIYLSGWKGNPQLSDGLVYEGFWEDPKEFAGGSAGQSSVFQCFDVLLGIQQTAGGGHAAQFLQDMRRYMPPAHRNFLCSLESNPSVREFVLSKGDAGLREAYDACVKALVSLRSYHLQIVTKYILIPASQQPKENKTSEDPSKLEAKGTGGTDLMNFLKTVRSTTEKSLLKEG
Protocol: HEK293 cells were transfected with a pCDNA-based mammalian expression vector harboring human IDO1 cDNA (NM 002164.2) by electroporation. They were cultured in medium (DMEM with 10% FBS) containing 1 mg/ml G418 for two weeks. Clones of HEK293 cells that stably expressed human IDO1 protein were selected and expanded for IDO inhibition assay.
The human IDO1/HEK293 cells were seeded at 10,000 cells per 50 μL per well with RPMI/phenol red free media contains 10% FBS in a 384-well black wall clear bottom tissue culture plate (Matrix Technologies LLC) 100 nL of certain concentration of compound was then added to each well using ECHO liquid handling systems. The cells were incubated for 20 hours in 37° C. incubator with 5% CO2.
The compound treatments were stopped by adding trichloroacetic acid (Sigma-Aldrich) to a final concentration at 0.2%. The cell plate was further incubated at 50° C. for 30 minute. The equal volume supernatant (20 μL) and 0.2% (w/v) Ehrlich reagent (4-dimethylaminobenzaldehyde, Sigma-Aldrich) in glacial acetic acid were mixed in a new clear bottom 384-well plate. This plate was then incubated at RT for 30 minute. The absorbance at 490 nm was measured on Envision plate reader.
Compound IC50 values were calculated using the counts of 500 nM of a reference standard treatment as one hundred percent inhibition, and counts of no compound but DMSO treatment as zero percent inhibition.

Going from `CCCN(Cc1ccccc1)c1cc(NC(=O)Cc2ccccc2C(F)(F)F)cc(-c2ccccc2-c2nn[nH]n2)n1` [Example 205, N-(2-(2-(2H-tetrazol-5-yl)phenyl)-6-(benzyl(propyl)amino)pyridin-4-yl)-2-(2-(trifluoromethyl)phenyl)acetamide] to `CCCN(Cc1ccccc1)c1cc(NC(=O)Nc2ccc(C)cc2)cc(-c2ccccc2-c2nc(=O)o[nH]2)n1` [Example 31, 1-(2-(benzyl (propyl)amino)-6-(2-(5-oxo-4,5-dihydro-1,2,4-oxadiazol-3-yl)phenyl)pyridin-4-yl)-3-(p-tolyl) urea], the IC50 falls from 80.2 nM to 13.9 nM (5.8-fold). The second is the more potent here.

First: CCCN(Cc1ccccc1)c1cc(NC(=O)Cc2ccc3ccccc3c2)cc(-c2ccccc2-c2nn[nH]n2)n1 [Example 201, N-(2-(2-(2H-tetrazol-5-yl)phenyl)-6-(benzyl(propyl)amino)pyridin-4-yl)-2-(naphthalen-2-yl)acetamide]
Second: CCCN(Cc1ccccc1)c1cc(NC(=O)Nc2ccc(C)cc2)cc(-c2ccccc2S(N)(=O)=O)n1 [Example 27, 2-(6-(benzyl (propyl)amino)-4-(3-(p-tolyl)ureido)pyridin-2-yl) benzene sulfonamide]
The IC50 of the first is 18-fold lower: 34.2 nM for the first, 607 nM for the second.

First: CC(C)CN(Cc1ccccc1)c1cc(Nc2ccc(F)cc2)cc(-c2ccccc2-c2nnn[nH]2)n1 [Example 170, 6-(2-(1H-tetrazol-5-yl)phenyl)-N2-benzyl-N4-(4-fluorophenyl)-N2-isobutylpyridine-2,4-diamine]
Second: CC(C)CN(Cc1ccccc1)c1cc(NC(=O)Cc2ccc(F)cc2)cc(-c2ccccc2-c2nnn[nH]2)n1 [Example 80, N-(2-(2-(1H-tetrazol-5-yl)phenyl)-6-(benzyl(isobutyl)amino)pyridin-4-yl)-2-(4-fluorophenyl)acetamide, TFA]
The IC50 of the first is 71-fold lower: 4.9 nM for the first, 350 nM for the second. The first is the more potent here.

First: CCCN(Cc1ccc(F)cc1)c1cc(NC(=O)Cc2ccc(C)cc2F)cc(-c2ccccc2-c2nnn[nH]2)n1 [Example 75, N-(2-(2-(1H-tetrazol-5-yl)phenyl)-6-((4-fluorobenzyl)(propyl)amino)pyridin-4-yl)-2-(2-fluoro-4-methylphenyl)acetamide, TFA]
Second: CCCN(Cc1ccccc1)c1cc(NC(=O)Nc2ccc(C)cc2)cc(-c2cc(C)ccc2-c2nnn[nH]2)n1 [Example 301, 1-(2-(Benzyl(propyl)amino)-6-(5-methyl-2-(1H-tetrazol-5-yl)phenyl)pyridin-4-yl)-3-(p-tolyl)urea]
The IC50 of the first is 1.7-fold lower: 27.9 nM for the first, 46.1 nM for the second.

Going from `CC(C)CN(Cc1ccccc1)c1cc(Nc2ccc(C(=O)O)cc2F)cc(-c2ccccc2-c2nnn[nH]2)n1` [Example 166, 4-((2-(2-(1H-tetrazol-5-yl)phenyl)-6-(benzyl(isobutyl)amino)pyridin-4-yl)amino)-3-fluorobenzoic acid] to `CCN(Cc1ccccc1)c1cc(NC(=O)Cc2ccc(C)nc2)cc(-c2ccccc2-c2nnn[nH]2)n1` [Example 285], the IC50 falls from 4050 nM to 2330 nM (1.7-fold). The second is the more potent here.

Compared with `Cc1ncccc1Nc1cc(-c2ccccc2-c2nnn[nH]2)nc(N(Cc2ccc(F)cc2)CC(C)C)c1` [Example 45, 6-(2-(1H-tetrazol-5-yl)phenyl)-N2-(4-fluorobenzyl)-N2-isobutyl-N4-(2-methylpyridin-3-yl)pyridine-2,4-diamine, TFA], `CCCN(c1cc(NC(=O)Nc2ccc(C)cc2)cc(-c2ccccc2-c2nnn[nH]2)n1)C1CCOCC1` [Example 109, 1-(2-(2-(1H-tetrazol-5-yl)phenyl)-6-(propyl(tetrahydro-2H-pyran-4-yl)amino)pyridin-4-yl)-3-(p-tolyl)urea] is 17-fold higher in IC50: 239 nM for the first, 4120 nM for the second. The first is the more potent here.

Compared with `CCCN(Cc1ccccc1)c1cc(Nc2nc3ccc(F)cc3s2)cc(-c2ccccc2-c2nnn[nH]2)n1` [Example 62, 6-(2-(1H-tetrazol-5-yl)phenyl)-N2-benzyl-N4-(6-fluorobenzo[d]thiazol-2-yl)-N2-propylpyridine-2,4-diamine], `CCCN(Cc1ccccc1)c1cc(NC(=O)Cc2ccc(C#N)cc2)cc(-c2ccccc2-c2nn[nH]n2)n1` [Example 290, N-(2-(2-(1H-Tetrazol-5-yl)phenyl)-6-(benzyl(propyl)amino)pyridin-4-yl)-2-(4-cyanophenyl)acetamide] is 8.5-fold higher in IC50: 56.8 nM for the first, 483 nM for the second.

Compared with `CCN(Cc1ccccc1)c1cc(NC(=O)Nc2ccc(Cl)cc2F)cc(-c2ccccc2-c2nnn[nH]2)n1` [Example 275], “1-(2-(2-(1H-tetrazol-5-yl)phenyl)-6- (benzyl(propyl)amino)pyridin-4-yl)-3-(4- ethoxyphenyl)urea [Example 272]” is 4.8-fold higher in IC50: 26.6 nM for the first, 129 nM for the second.

Compared with `CCCN(Cc1ccccc1)c1cc(NC(=O)Nc2ccc(C)cc2)cc(-c2ccccc2-c2nsc(=O)[nH]2)n1` [Example 14, 1-(2-(benzyl(propyl)amino)-6-(2-(5-oxo-4,5-dihydro-1,2,4-thiadiazol-3-yl)phenyl)pyridin-4-yl)-3-(p-tolyl)urea], `CCCN(CC1CC1)c1cc(Nc2ncc(C(F)(F)F)cn2)cc(-c2ccccc2-c2nnn[nH]2)n1` [Example 84] is 2.1-fold higher in IC50: 181 nM for the first, 373 nM for the second.

Compared with `CC(C)CN(Cc1ccccc1)c1cc(Nc2cccc(OC(F)(F)C(F)F)c2)cc(-c2ccccc2-c2nnn[nH]2)n1` [Example 189, 6-(2-(1H-tetrazol-5-yl)phenyl)-N2-benzyl-N2-isobutyl-N4-(3-(1,1,2,2-tetrafluoroethoxy)phenyl)pyridine-2,4-diamine], `Cc1ccc(CC(=O)Nc2cc(-c3ccccc3-c3nnn[nH]3)nc(N3CCCCCC3)c2)cc1` [Example 127, N-(2-(2-(1H-tetrazol-5-yl)phenyl)-6-(azepan-1-yl)pyridin-4-yl)-2-(p-tolyl)acetamide] is 110-fold higher in IC50: 9.3 nM for the first, 1050 nM for the second. The first is the more potent here.

First: CCC(CC(=O)O)c1cc(Nc2ccc(Cl)cc2)cc(N(Cc2ccccc2)C(C)C)n1 (stereo not drawn) [Example 241, 3-(6-(benzyl(isopropyl)amino)-4-((4-chlorophenyl)amino)pyridin-2-yl)pentanoic acid]
Second: CC(C)CN(Cc1ccccc1)c1cc(Nc2ccc(F)c(F)c2)cc(-c2ccccc2-c2nnn[nH]2)n1 [Example 181, 6-(2-(1H-tetrazol-5-yl)phenyl)-N2-benzyl-N4-(3,4-difluorophenyl)-N2-isobutylpyridine-2,4-diamine]
The IC50 of the first is 5-fold higher: 21.3 nM for the first, 4.3 nM for the second. The second is the more potent here.

Going from `Cc1cnc(Nc2cc(-c3ccccc3-c3nnn[nH]3)nc(N(Cc3ccc(F)cc3)CC(C)C)c2)nc1` [Example 40, 6-(2-(1H-tetrazol-5-yl)phenyl)-N2-(4-fluorobenzyl)-N2-isobutyl-N4-(5-methylpyrimidin-2-yl)pyridine-2,4-diamine, TFA] to `Cc1ccc(NC(=O)Nc2cc(-c3ccccc3-c3nnn[nH]3)nc(N3CCc4ccccc4C3)n2)cc1` [Example 93, 1-(6-(2-(1H-tetrazol-5-yl)phenyl)-2-(3,4-dihydroisoquinolin-2(1H)-yl)pyrimidin-4-yl)-3-(p-tolyl)urea], the IC50 rises from 33.1 nM to 3170 nM (96-fold). The first is the more potent here.

First: Cc1cc(CC(=O)Nc2cc(-c3ccccc3-c3nnn[nH]3)nc(N(Cc3ccccc3)CC(C)C)c2)on1 [Example 231, N-(2-(2-(1H-tetrazol-5-yl)phenyl)-6-(benzyl(isobutyl)amino)pyridin-4-yl)-2-(3-methylisoxazol-5-yl)acetamide]
Second: CCc1cnc(Nc2cc(-c3ccccc3-c3nnn[nH]3)nc(N(Cc3ccccc3)CC(C)C)c2)nc1 [Example 162, 6-(2-(1H-tetrazol-5-yl)phenyl)-N2-benzyl-N4-(5-ethylpyrimidin-2-yl)-N2-isobutylpyridine-2,4-diamine]
The IC50 of the first is 26-fold higher: 675 nM for the first, 26.2 nM for the second.

First: COc1cccc(Nc2cc(-c3ccccc3-c3nnn[nH]3)nc(N(Cc3ccccc3)CC(C)C)c2)c1 [Example 196, 6-(2-(1H-tetrazol-5-yl)phenyl)-N2-benzyl-N2-isobutyl-N4-(3-methoxyphenyl)pyridine-2,4-diamine]
Second: CCCN(Cc1ccccc1)c1cc(NC(=O)Nc2ccccc2F)cc(-c2cc(F)ccc2C(=O)O)n1 [Example 261, 2-(6-(benzyl(propyl)amino)-4-(3-(2-fluorophenyl)ureido)pyridin-2-yl)-4-fluorobenzoic acid]
The IC50 of the first is 230-fold lower: 7 nM for the first, 1640 nM for the second. The first is the more potent here.

First: CC(C)CN(Cc1ccccc1)c1cc(Nc2ncc(F)cn2)cc(-c2ccccc2-c2nnn[nH]2)n1 [Example 55, 6-(2-(1H-tetrazol-5-yl)phenyl)-N2-benzyl-N4-(5-fluoropyrimidin-2-yl)-N2-isobutylpyridine-2,4-diamine, 1.5 TFA]
Second: CC(C)CN(Cc1ccccc1)c1cc(Nc2cccc(C#N)c2)cc(-c2ccccc2-c2nnn[nH]2)n1 [Example 192, 3-((2-(2-(1H-tetrazol-5-yl)phenyl)-6-(benzyl(isobutyl)amino)pyridin-4-yl)amino)benzonitrile]
The IC50 of the first is 1.7-fold lower: 11.5 nM for the first, 19.8 nM for the second. The first is the more potent here.

Compared with `CCCN(Cc1ccc(F)cc1)c1cc(NC(=O)Cc2ccc(C)cc2)cc(-c2ccccc2-c2nnn[nH]2)n1` [Example 85, N-(2-(2-(1H-tetrazol-5-yl)phenyl)-6-((4-fluorobenzyl)(propyl)amino)pyridin-4-yl)-2-(p-tolyl)acetamide, TFA], `COc1cc(Nc2cc(-c3ccccc3-c3nnn[nH]3)nc(N(Cc3ccccc3)CC(C)C)c2)ccc1Cl` [Example 188, 6-(2-(1H-tetrazol-5-yl)phenyl)-N2-benzyl-N4-(4-chloro-3-methoxyphenyl)-N2-isobutylpyridine-2,4-diamine] is 45-fold lower in IC50: 89.8 nM for the first, 2 nM for the second.

In the case of `CCCN(CC1CC1)c1nc(NC(=O)Nc2ccc(F)cc2)cc(-c2ccccc2-c2nnn[nH]2)n1` [Example 65, 1-(6-(2-(1H-tetrazol-5-yl)phenyl)-2-((cyclopropylmethyl)(propyl)amino)pyrimidin-4-yl)-3-(4-fluorophenyl)urea, TFA], the IC50 is reported as 4530 nM.
